Experimental data taken from publication PMC11292009, “Mapping protein binding sites by photoreactive fragment pharmacophores” (Communications Chemistry, 2024).
Several values for one entry are separate records, joined by “and”; a condition that tells them apart may be missing. Identical values can stand only once.

Columns and labels:
Assay type in all cases: binding
lysozyme (Lyo) = assay: Intact protein MS photoaffinity labeling screen, lysozyme; settings: intact protein MS after 10 min irradiation
Summary of the method: (§1)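 Labeling % derives from mass additions observed by intact protein MS on each well, measured without transfer from the plate; fragments, one per well, had been pre-incubated 15 min with protein.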

[1] = test system: CA, Lyo, Myo, BRD4-BD1, KRas G12D, STAT5B-NTD; assay: Intact MS labeling compared over all protein targets; settings: for Labeling of the other protein targets (vs. preferred target): each of the other targets
Description: Using a plate-based format with one fragment per well, each fragment was incubated with the target proteins for 15 min to allow for the formation of non-covalent interactions. The plate was then irradiated at 302 or 365 nm for 10 min to enable the bound fragments to crosslink to the protein[26]. Finally, the results were directly analyzed from the plate using intact protein mass spectrometry by observing the mass additions that correspond to successful labeling (Fig. 2c, for labeling % values see Supplementary data). The library was first characterized against three benchmark proteins like carbonic anhydrase (CA), lysozyme (Lyo), and myoglobin (Myo).
The PhP library was screened against BRD4-BD1 and KRas^G12D as follows. Using a Labcyte Echo® 555 Liquid Handler, 150 nL of fragment solution (20 mM) was transferred into a Greiner 384 low-volume plate (white) to prepare the probe plate. The probe plate was placed on ice. 15 μL of protein stock solution (1 μM BRD4-BD1 (GSK/GenScript) or KRas^G12D (GSK/GenScript) in PBS buffer) was dispensed into wells containing fragments. The plate was left on ice for 15 min for incubation, then irradiated at 302 nm for 10 min, and centrifuged (1000 rpm, 1 min) to remove any bubbles. The plate was then analyzed by LCMS-TOF mass spectrometry (Agilent 1200 series liquid chromatography with Agilent Bio-HPLC PLRP-S (1000 Å, 5 µm × 50 mm × 1.0 mm, PL1312-1502) reverse phase HPLC column at 70 °C equipped with an Agilent G6224 time-of-flight (ToF), see Supplementary Note 2 for the full protocols). The deconvoluted spectra were analyzed using R Studio software.
During the analysis, the column temperature was maintained at a constant 60 °C, and a sample volume of 3 µL was injected for each analysis. Data acquisition was conducted in positive ion mode within the m/z 100–2000 (mass-to-charge ratio) range. For the full protocol and spectra of the hits, see Supplementary Note 2.

STAT5B-NTD [2] = test system: T1, STAT5B-NTD; assay: Intact MS photoaffinity labeling screen, STAT5B-NTD (365 nm, UHPLC-MS); settings: for experimental hit status STAT5B-NTD: 0/1 flag; for MS labeling percentage, STAT5B: STAT5B-NTD, 365 nm 10 min, no photocatalyst; for STAT5B-NTD: experimental hit status flag (0/1);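 for MS labeling percentage, STAT5B: 0.17 µL of 100 mM DMSO fragment stock added to the protein sample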
T1 construct: His-SUMO (N, cleaved yes); made in house; host or cells: E. coli BL21 RILP
Summary of the method: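 UV irradiation at 365 nm for 10 min at 4 °C. Labeling read by intact-protein UHPLC-MS, positive ion mode, m/z 100–2000.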

KRas^G12D = test system: T2, KRas^G12D; assay: Intact MS photoaffinity labeling screen, KRas G12D (302 nm, LCMS-TOF); settings: for experimental hit status KRAS-G12D: 0/1 flag; for MS labeling percentage, KRas: KRas G12D, 302 nm 10 min; for KRAS-G12D: experimental hit status flag (0/1)
T2 construct: purchased GSK/GenScript
Summary of the method: (§2)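 Labeling detected as mass additions in deconvoluted intact-protein LCMS-TOF spectra. Protein at 1 μM in PBS was first mixed with one fragment per well on ice for 15 min, followed by 10 min UV exposure at 302 nm.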

[3] = test system: carbonic anhydrase II (CA); assay: Intact protein MS photoaffinity labeling screen, carbonic anhydrase; settings: intact protein MS after 10 min irradiation
Summary of the method: as §1

myoglobin (Myo) = assay: Intact protein MS photoaffinity labeling screen, myoglobin; settings: intact protein MS after 10 min irradiation
Summary of the method: as §1

BRD4-BD1 = test system: T3, BRD4-BD1; assay: Intact MS photoaffinity labeling screen, BRD4-BD1 (302 nm, LCMS-TOF); settings: for experimental hit status BRD4-BD1: 0/1 flag; for MS labeling percentage, BRD4: BRD4-BD1, 302 nm 10 min; for BRD4-BD1: experimental hit status flag (0/1)
T3 construct: screened the PhP library against the first bromodomain of BRD4 (BRD4-BD1); purchased GSK/GenScript
Summary of the method: as §2

STAT5B-NTD [4] = test system: T1, STAT5B-NTD; assay: Intact MS labeling screen, STAT5B-NTD conjugated with photocatalyst Ir-G2-PEG3-COOH (450 nm); settings: 450 nm 10 min;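 note: 0.14 µL of 100 mM DMSO fragment stock added to the conjugate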
Summary of the method: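 Ir-G2-PEG3-COOH photocatalyst (10 eq) activated 30 min with EDC/NHS/BOP, then conjugated to STAT5B-NTD (7 µM) overnight at RT or 1 h at 37 °C in dark. PhP added, 1 h dark, then 450 nm irradiation 10 min at 4 °C; labeling read by intact LC-MS, positive ion mode, m/z 100–2000.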

[5] = PhP library sheet "PhP", binary flag printed as 0 or 1, key not given
[6] = sheet PhP, experimental hit status flag given as 0 or 1
[7] = hit status flag, 1 = hit, 0 = no hit
[8] = hit flag 1/0, sheet PhP, photoaffinity labeling screen

Row | SMILES | MS labeling percentage, Lyo (lysozyme (Lyo)) [%] | MS labeling percentage, STAT5B (STAT5B-NTD [2]) [%] | MS labeling percentage, KRas (KRas^G12D) [%] | MS labeling percentage, CA [3] [%] | MS labeling percentage, Myo (myoglobin (Myo)) [%] | MS labeling percentage, BRD4 (BRD4-BD1) [%] | MS labeling percentage, STAT5B+photocat (STAT5B-NTD [4]) [%] | STAT5B-NTD (experimental hit status) (STAT5B-NTD [2]; [5]) | KRAS-G12D (experimental hit status) (KRas^G12D; [5]) | BRD4-BD1 (experimental hit status) (BRD4-BD1; [5]) | Labeling of the other protein targets (vs. preferred target) [1] | further results
1 | COc1ccc(S(=O)(=O)N2CCC(NC(=O)CCC3(C)N=N3)CC2)cc1 [PhP018, COc1ccc(cc1)S(=O)(=O)N2CCC(CC2)NC(=O)CCC3(C)N=N3] | 3.7 | 0 | 42 | 17.7 | 19.9 | 65.5 | 0.7 |  |  |  |  | Number of proteins labeled ([1]; of the six protein targets): four; experimental hit status STAT5B-NTD (STAT5B-NTD [2]): 0; experimental hit status KRAS-G12D (KRas^G12D): 0; experimental hit status BRD4-BD1 (BRD4-BD1): 0
2 | COc1ccc(NS(=O)(=O)c2cccc(NC(=O)CCC3(C)N=N3)c2)cc1 [PhP087, COc1ccc(cc1)NS(=O)(=O)c2cccc(c2)NC(=O)CCC3(C)N=N3] | 1.5 | 2.9 | 12.6 | 18.9 | 3.2 | 0.7 | 8 | 0 | 0 | 0 |  | Number of targets labeled in higher than 10% amount ([1]; of the six protein targets): two
3 | CC(Cc1ccc(O)c(O)c1)NC(=O)CCC1(C)N=N1 (centres unmarked) [PhP001, N1=NC1(C)CCC(=O)NC(C)Cc2ccc(O)c(O)c2] | 19.2 | 0 | 0 | 0 | 0.2 | 0.6 | 0 |  |  |  | > 1% and < 1% | STAT5B-NTD (STAT5B-NTD [2]): 0; KRAS-G12D (KRas^G12D): 0; BRD4-BD1 (BRD4-BD1): 0
4 | COc1ccc(CCNC(=O)CCC2(C)N=N2)c2ccccc12 [PhP034, c1cccc(c12)c(OC)ccc2CCNC(=O)CCC3(C)N=N3] | 1.7 | 0 | 67.8 | 4.7 | 1.7 | 10.6 | 1.1 |  |  |  |  | Number of targets labeled in higher than 10% amount ([1]; of the six protein targets): two; experimental hit status STAT5B-NTD (STAT5B-NTD [2]): 0; experimental hit status KRAS-G12D (KRas^G12D): 0; experimental hit status BRD4-BD1 (BRD4-BD1): 0
5 | Cc1c[nH]c(=O)n1-c1cccc(CNC(=O)CCC2(C)N=N2)c1 [PhP077, Cc1c[nH]c(=O)n1-c2cccc(c2)CNC(=O)CCC3(C)N=N3] | 0 | 20 | 0.7 | 0.1 | 0.2 |  | 11.5 |  |  |  | > 3% and < 3% | STAT5B-NTD (experimental hit status) (STAT5B-NTD [2]; [6]): 0; KRAS-G12D (experimental hit status) (KRas^G12D; [6]): 0; BRD4-BD1 (experimental hit status) (BRD4-BD1; [6]): 0
6 | CC1(CCC(=O)NC2CCN(c3ccc(F)cc3)CC2)N=N1 [PhP012, N1=NC1(C)CCC(=O)NC2CCN(CC2)c3ccc(F)cc3] | 2.6 | 0 | 15.8 | 0.9 | 1 | 2.8 | 1 |  |  |  | > 3% and < 3% | STAT5B-NTD (STAT5B-NTD [2]): 0; KRAS-G12D (KRas^G12D): 0; BRD4-BD1 (BRD4-BD1): 0
7 | COc1ccc(-c2cnc(CNC(=O)CCC3(C)N=N3)[nH]2)cc1 [PhP098, COc1ccc(cc1)-c2cnc([nH]2)CNC(=O)CCC3(C)N=N3] | 0.5 | 1.4 | 9.6 | 1.6 | 2.3 | 4.3 | 3.1 |  |  |  |  | Labeling efficiency over all protein targets (mean ± spread) [1]: 3.3 ± 3.1%; STAT5B-NTD (experimental hit status) (STAT5B-NTD [2]; [7]): 0; KRAS-G12D (experimental hit status) (KRas^G12D; [7]): 0; BRD4-BD1 (experimental hit status) (BRD4-BD1; [7]): 0
8 | Cc1nc(CCNC(=O)CCC2(C)N=N2)sc1C [PhP092, Cc1nc(sc1C)CCNC(=O)CCC2(C)N=N2] | 35.6 | 0 | 0.1 | 0.3 | 0.1 | 0.5 | 0.8 | 0 | 0 | 0 | > 1% and < 1% | 
9 | CC1(CCC(=O)NCc2cc3ccccc3[nH]2)N=N1 [PhP040, N1=NC1(C)CCC(=O)NCc(c2)[nH]c(c23)cccc3] | 0.3 | 75 | 1.9 | 0.7 | 0.5 | 2.1 | 74 |  |  |  | > 3% and < 3% | STAT5B-NTD (experimental hit status) (STAT5B-NTD [2]; [8]): 0; KRAS-G12D (experimental hit status) (KRas^G12D; [8]): 0; BRD4-BD1 (experimental hit status) (BRD4-BD1; [8]): 0
10 | Cc1noc(C)c1-c1ccc(CNC(=O)CCC2(C)N=N2)cc1 [PhP080, Cc1noc(C)c1-c2ccc(cc2)CNC(=O)CCC3(C)N=N3] | 7.7 | 1 | 3.2 | 3 | 3 |  | 21.1 | 0 | 0 | 0 |  | Labeling efficiency over all protein targets (mean ± spread) [1]: 3.6 ± 2.2%
11 | CC1(CCC(=O)NCc2ccc(-c3ccc(O)cc3)cc2)N=N1 [PhP088, N1=NC1(C)CCC(=O)NCc2ccc(cc2)-c3ccc(O)cc3] | 4.8 | 0 | 0.2 | 0 | 0.2 | 0.5 | 5.7 | 0 | 0 | 0 | > 1% and < 1% | 
12 | CC1(CCC(=O)NCc2nc3ncccc3[nH]2)N=N1 [PhP053, N1=NC1(C)CCC(=O)NCc(n2)[nH]c(c23)cccn3] | 0 | 0 | 2 | 1.2 | 0.6 | 6.7 | 1 |  |  |  | > 2% and < 2% | STAT5B-NTD (experimental hit status) (STAT5B-NTD [2]; [8]): 0; KRAS-G12D (experimental hit status) (KRas^G12D; [8]): 0; BRD4-BD1 (experimental hit status) (BRD4-BD1; [8]): 1
13 | CC1(CCC(=O)NCc2cccc(C(N)=O)c2)N=N1 [PhP059, N1=NC1(C)CCC(=O)NCc2cccc(c2)C(=O)N] | 0 | 1 | 0.8 | 0.6 | 0.7 | 0.7 | 0.3 |  |  |  |  | STAT5B-NTD (experimental hit status) (STAT5B-NTD [2]; [6]): 0; KRAS-G12D (experimental hit status) (KRas^G12D; [6]): 0; BRD4-BD1 (experimental hit status) (BRD4-BD1; [6]): 0
